Measured values taken from patent US10450300B2, “Wnt signaling pathway inhibitors and therapeutic applications thereof” (Suzhou Yunxuan Yiyao Keji Youxian Gongsi, priority 2015, dated 2019).

Tested on: Wnt pathway
Test: Wnt pathway Super-top flash (STF) reporter gene assay (primary assay)
Assay type: cell-based
Details: HEK293 STF cells co-cultured 1:1 with L Wnt3A cells; 48 h incubation; inhibition of luminescence signaling
Description: The primary assay is based on Wnt pathway Super-top flash (STF) reporter gene assay:
HEK293 STF stable clones (HEK293 cells stably transfected with “Super-Top Flash” TCF-luciferase reporter plasmid) were kept in complete culture medium (DMEM with 4 mM L-Gln, 1.5 g/L sodium bicarbonate and 4.5 g/L glucose containing 6 μg/mL Blasticidin and 10% FBS). L Wnt3A cells (CRL-2647, ATCC) were kept in DMEM (Gibico) containing 10% FBS (Hyclone). HEK293 STF and L Wnt3A cells were harvested when 90% confluence and cell suspension was mixed with a fixed ratio of 1:1 (HEK293 STF: L Wnt3A). 100 μL/well of mixed cells suspension was added to the 96-well-plate with final cell concentration of 12,000 cells/well and then cultured for an additional 24 hours before adding compounds.
Compounds were diluted in DMSO in sequence and then diluted with DMEM medium. 20 μL medium containing compound was added to the cells according to the pre-setting dose. Cell plates were incubated at 37° C. for an additional 48 hours.
50 μL luciferase solution (Bright-Glo, Promega) was added to each well […] the 48 h incubation. The plates were incubated at room temperature for 5 min under gentle shaking. Luminescence signaling was measured with a plate reader (PHERAstar FS, BMG). The IC50 (potency) of compounds was calculated based on the inhibition of luminescence signaling.

Row | SMILES | IC50
1 | Cc1cc(-c2ccc(CN(C)c3ncnc(-c4ccc5ccccc5c4)c3F)cc2)ccn1 [Compound A-27, 5-fluoro-N-methyl-N-(4-(2-methylpyridin-4-yl)benzyl)-6-(naphthalen-2-yl)pyrimidin-4-amine] | 937 nM
2 | Cc1cc(-c2ccc(CNc3ncnc(-c4ccc5nccn5c4)c3F)cc2)ccn1 [Compound A-11] | 1.6 nM
3 | Cc1cc(-c2ccc(CNc3cc(Cl)nc(N4CCc5ccccc5C4)n3)cc2)ccn1 [Compound A-135] | 3000 nM
4 | COc1cc(CNc2nccc(-c3cc4cccnc4cn3)c2F)cnc1-c1ccnc(C)c1 [Compound A-122] | 0.13 nM
5 | Cc1cc(-c2ncc(CNc3nccc(-c4ccc5ncccc5c4)c3F)cc2F)ccn1 [Compound A-98] | 0.06 nM
6 | Cc1cc(-c2ccc(CNc3nc(N4CCc5ncccc5C4)ncc3F)cc2)ccn1 [Compound A-161] | 3000 nM
7 | Cc1cc(-c2ccc(CNc3ncnc(-c4ccc5ncccc5c4)c3F)cc2)cc[n+]1[O-] [Compound A-64, 4-(4-((5-fluoro-6-(quinolin-6-yl)pyrimidin-4-ylamino)methyl)phenyl)-2-methylpyridine 1-oxide] | 16 nM
8 | Cc1cn(-c2ccc(CNc3nsc(-c4ccc5ncccc5c4)n3)cc2)cn1 [Compound A-187] | 51 nM
9 | Cc1cc(-c2ccc(CNc3cc(-c4ccc5ccccc5c4)ncn3)cc2)ccn1 [Compound A-134] | 24 nM
10 | Cc1cc(-c2ncc(CNc3nccc(-c4cc5cccnc5cn4)n3)cc2F)ccn1 [Compound A-184] | 1 nM
11 | N#Cc1ccc2cc(CNc3ncnc(-c4ccc5ncccc5c4)c3F)ccc2c1 [Compound A-42, 6-((5-fluoro-6-(quinolin-6-yl)pyrimidin-4-ylamino)methyl)-2-naphthonitrile] | 0.7 nM
12 | Cc1cc(-c2ccc(CNc3cc(N4CCCC4)nc(N4CCc5ccccc5C4)n3)cc2)ccn1 [Compound A-136] | 4000 nM
13 | Cc1cc(-c2ncc(CNc3ncnc(N4CCc5ncncc5C4)c3F)cc2F)ccn1 [Compound A-62] | 6.2 nM
14 | CSc1ncc2c(n1)CCN(c1cc(NCc3ccc(-c4ccnc(C)c4)cc3)ncn1)C2=O [Compound A-137, 6-(6-(4-(2-methylpyridin-4-yl)benzylamino)pyrimidin-4-yl)-2-(methylthio)-7,8-dihydropyrido[4,3-d]pyrimidin-5(6H)-one] | 3000 nM
15 | COc1cc(CNc2nccc(-c3ccc4ncccc4c3)n2)cnc1-c1ccnc(C)c1 [Compound A-175] | 0.74 nM
16 | Cc1cc(-c2ncc(CNc3ncnc(N4Cc5cccnc5C4)c3F)cc2F)ccn1 [Compound A-88] | 7.7 nM

The remaining molecules from weak to strong by IC50, led by results:

Row | IC50 | SMILES
17 | 3000 nM | CCNc1nc(NCc2ccc(-c3ccnc(C)c3)cc2)cc(-c2ccc3ccccc3c2)n1 [Compound A-142]
18 | 99 nM | Cc1cc(-c2ccc(CNc3ncnc(-c4ccc5[nH]ncc5c4)c3F)cc2)ccn1 [Compound A-13]
19 | 14 nM | Cc1cc(-c2ncc(CNc3ncnc(N4CCOc5ncccc5C4)c3F)cc2F)ccn1 [Compound A-89]
20 | 14 nM | Cc1cc(-c2ccc(CNc3ncnc(-c4cccc(Cl)c4)c3F)cc2)ccn1 [Compound A-19]
21 | 10 nM | CS(=O)(=O)CCNc1ccc(CNc2nccc(-c3ccc4ncccc4c3)c2F)cn1 [Compound A-112]
22 | 0.84 nM | Cc1cc(-c2ncc(CNc3nsc(-c4cc5cccnc5cn4)n3)cc2F)ccn1 [Compound A-195]
23 | 0.81 nM | Cc1cc(-c2ncc(CNc3ncnc(-c4ccc5ncccc5c4)c3F)cn2)ccn1 [Compound A-60]
24 | 0.67 nM | Cc1cc(-c2ncc(CNc3ncnc(N4CCc5ncsc5C4)c3F)cc2F)ccn1 [Compound A-54]
25 | 0.4 nM | Cc1cc(-c2ncc(CNc3ncnc(N4CCc5ncccc5C4)c3F)cc2F)ccn1 [Compound A-45]
26 | 0.29 nM | N#Cc1cnc2cc(CNc3ncnc(-c4ccc5ncccc5c4)c3F)ccc2c1 [Compound A-71]
27 | 0.06 nM | Cc1cc(-c2ncc(CNc3nccc(-c4cc5cccnc5cn4)c3F)cc2C#N)ccn1 [Compound A-121, 5-((3-fluoro-4-(1,7-naphthyridin-6-yl)pyridin-2-ylamino)methyl)-2′-methyl-2,4′-bipyridine-3-carbonitrile]
